The text below walks through data of ChEMBL document CHEMBL1201862, “PubChem BioAssay data set” (2004).

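Values below derive from 48-hour exposures of cells grown in 96-well plates, with endpoints linearly interpolated between the two concentrations bracketing the appropriate inhibition level. Here, GI50 denotes the concentration required for 50% inhibition of growth.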 Calls of active or inactive are those of the source. Cut-off read from the data, not from the text of the source: active = GI50 up to about 1.1 µM and inactive = higher.

Among the test systems are SF-268; HOP-62; KM12; HCT-116; K562; NCI-H23; SK-MEL-28; ACHN; HL-60; HT-29; NCI-H226; IGROV-1; UACC-257; UACC-62; NCI-H522; COLO 205; HCT-15; DU-145; MDA-MB-435.
What all share (experiment): NCI anticancer screen, dose series, 48 h

As to `c1ccc(C2CC(c3ccc4ccccc4c3)=Nc3ccccc3S2)cc1` (stereo not given), the GI50 was 17 µM (inactive) with SF-268; 17.1 µM (inactive) with HOP-62; 17.7 µM (inactive) with KM12; 14.8 µM (inactive) with HCT-116; 20 µM (inactive) in the experiment on K562; 14.8 µM (inactive) with NCI-H23. For the same compound, the GI50 in the experiment with SK-MEL-28 was 18.3 µM (inactive); with ACHN it was 16.7 µM (inactive); in the experiment on HL-60 it was 19.5 µM (inactive); with HT-29, 17.1 µM (inactive); in the experiment with NCI-H226, 19.4 µM (inactive); in the experiment with IGROV-1, 22.8 µM (inactive). Further, the GI50 in the experiment with UACC-257 is 19.5 µM (inactive); in the experiment on UACC-62 it was 16.9 µM (inactive); in the experiment on NCI-H522 it was 17 µM (inactive).
`CC(=O)O/C(C)=C\C(=O)O/N=C(\N)c1ccc(C)cc1`: the GI50 in the experiment with SF-268 was 29.8 µM (inactive); in the experiment with HOP-62, 33.1 µM (inactive); in the experiment on KM12 it was 41.8 µM (inactive); in the experiment with HCT-116, 19.9 µM (inactive); with K562, 19.6 µM (inactive); in the experiment with NCI-H23 it was 22.2 µM (inactive). The GI50 is 19.6 µM (inactive) in the experiment on SK-MEL-28; 33 µM (inactive) in the experiment on ACHN; 21.1 µM (inactive) in the experiment with HL-60; 27.9 µM (inactive) in the experiment with COLO 205; 35.6 µM (inactive) with HT-29; 28.1 µM (inactive) in the experiment with NCI-H226. In addition, the GI50 with IGROV-1 is 28.3 µM (inactive); in the experiment with UACC-257, 30.8 µM (inactive); with UACC-62, 22.7 µM (inactive); in the experiment with NCI-H522 it was 21 µM (inactive).
In the case of `O=C1CC(C[C@H](O)C2CCCCC2O)CC(=O)N1Cc1ccccc1` (stereo not given in full), the GI50 in the experiment on SF-268, with HOP-62, in the experiment on KM12, in the experiment on HCT-116, in the experiment with K562 and with NCI-H23 was > 100 µM (inactive) each time. For the same compound, the GI50 in the experiment on SK-MEL-28, in the experiment on ACHN, in the experiment with HL-60, in the experiment on COLO 205, with HT-29 and with NCI-H226 was > 100 µM (inactive) in each case. Besides, the GI50 in the experiment with IGROV-1, in the experiment with UACC-257, in the experiment with UACC-62 and in the experiment with NCI-H522 was > 100 µM (inactive) each time.
Take `CCCC(=O)c1ccc(=O)n(C)c1`: the GI50 in the experiment on SF-268, with HOP-62, in the experiment on KM12, with HCT-116, in the experiment with K562 and in the experiment with NCI-H23 was > 100 µM (inactive) throughout. Also, the GI50 in the experiment with SK-MEL-28, with ACHN, in the experiment on HL-60, with COLO 205, in the experiment on HT-29 and in the experiment on NCI-H226 was > 100 µM (inactive) throughout. Further, the GI50 was > 100 µM in the experiment on HCT-15, > 100 µM (inactive) in the experiment on IGROV-1, > 100 µM (inactive) in the experiment on UACC-62 and > 100 µM (inactive) in the experiment with NCI-H522.
For `O=C(c1ccc(Cl)cc1)N(C(=S)N1CCN(c2ccccc2)CC1)c1ccccc1`, the GI50 in the experiment on SF-268, in the experiment with HOP-62, with KM12, with HCT-116, with K562 and with NCI-H23 was > 100 µM (inactive) in each case. The GI50 in the experiment with SK-MEL-28 was > 100 µM (inactive); in the experiment on ACHN, > 100 µM (inactive); in the experiment with HL-60 it was > 100 µM (inactive); in the experiment on COLO 205, > 100 µM (inactive); in the experiment on HT-29, > 100 µM (inactive); in the experiment with NCI-H226, 53.8 µM (inactive). Also, the GI50 was > 100 µM with HCT-15; > 100 µM (inactive) with IGROV-1; > 100 µM (inactive) with UACC-257; > 100 µM (inactive) with UACC-62; > 100 µM (inactive) with NCI-H522.
Regarding `COc1cc(C(=O)C/C(CCC(=O)Nc2ccccc2[N+](=O)[O-])=N\NC(=O)CC#N)ccc1O`, the GI50 in the experiment with SF-268, in the experiment with HOP-62, in the experiment with KM12, in the experiment with K562, in the experiment on NCI-H23 and with SK-MEL-28 was > 100 µM (inactive) throughout. Moreover, the GI50 is > 100 µM (inactive) in the experiment with ACHN; > 100 µM (inactive) with HL-60; > 100 µM (inactive) in the experiment on COLO 205; > 100 µM (inactive) in the experiment on HT-29; > 100 µM (inactive) in the experiment on NCI-H226; > 100 µM in the experiment with HCT-15. Also, the GI50 in the experiment on IGROV-1, with UACC-257, in the experiment with UACC-62 and in the experiment on NCI-H522 was > 100 µM (inactive) throughout.
As for `CSc1ccc2c(cc1=O)C(NC(=O)c1cc(O)c(OC(=O)O)c(O)c1)CCc1cc(O)c(O)c(O)c1-2` (stereo not given), the GI50 was 19.8 µM (inactive) with SF-268; 19 µM (inactive) with HOP-62; 22.8 µM (inactive) with KM12; 16.5 µM (inactive) with HCT-116; 12.2 µM (inactive) in the experiment with K562; 19.2 µM (inactive) with NCI-H23. In addition, the GI50 in the experiment with SK-MEL-28 is 24.4 µM (inactive); with ACHN it was 33.8 µM (inactive); in the experiment on HL-60, 10 µM (inactive); in the experiment on COLO 205, 30.3 µM (inactive); in the experiment with HT-29, 20 µM (inactive); in the experiment on NCI-H226, 18.8 µM (inactive). Moreover, the GI50 is 16.1 µM with HCT-15; 19.7 µM (inactive) in the experiment on IGROV-1; 31 µM (inactive) with UACC-257; 14.7 µM (inactive) in the experiment on UACC-62; 5.87 µM (inactive) in the experiment on NCI-H522.
In the case of `COc1cccc(C2c3cc4c(cc3OC(NNC(N)=O)C2C)OCO4)c1OC` (stereo not given), the GI50 in the experiment on SF-268 was 27.7 µM (inactive); with HOP-62 it was 22 µM (inactive); in the experiment with KM12, 23.2 µM (inactive); in the experiment on HCT-116, 14.1 µM (inactive); with K562, 19.5 µM (inactive); with DU-145, 20.9 µM (inactive). Further, the GI50 with MDA-MB-435 is 19.9 µM (inactive); with NCI-H23, 30.8 µM (inactive); with SK-MEL-28 it was 21.4 µM (inactive); in the experiment on ACHN, 26.9 µM (inactive); in the experiment on HL-60 it was 20.8 µM (inactive); with COLO 205, 14.7 µM (inactive). Also, the GI50 was 22.4 µM (inactive) in the experiment on HT-29; 25.3 µM (inactive) with NCI-H226; 9.23 µM in the experiment on HCT-15; 23.7 µM (inactive) with IGROV-1; 27.3 µM (inactive) with UACC-257; 22.3 µM (inactive) in the experiment with UACC-62. The GI50 with NCI-H522 is 20.4 µM (inactive).
For the compound `COc1ccc2c3c(c(C(=O)O)oc13)CCC2`, the GI50 in the experiment with SF-268, in the experiment with HOP-62, in the experiment on KM12, in the experiment on HCT-116, in the experiment on K562 and in the experiment on NCI-H23 was > 100 µM (inactive) each time. Also, the GI50 in the experiment with SK-MEL-28 is > 100 µM (inactive); in the experiment on ACHN, > 100 µM (inactive); in the experiment with HL-60 it was > 100 µM (inactive); in the experiment with COLO 205, > 100 µM (inactive); with HT-29, > 100 µM (inactive); with NCI-H226, 18.2 µM (inactive). Moreover, the GI50 was > 100 µM in the experiment on HCT-15; > 100 µM (inactive) in the experiment on IGROV-1; > 100 µM (inactive) with UACC-257; > 100 µM (inactive) in the experiment on UACC-62; > 100 µM (inactive) in the experiment on NCI-H522.
In the case of `CCCS(=O)(=O)/C(=C(\c1ccc(Br)cc1)S(=O)(=O)CCC)c1ccc(Br)cc1`, the GI50 in the experiment on SF-268, in the experiment with HOP-62, with KM12, in the experiment with HCT-116, in the experiment on K562 and in the experiment on NCI-H23 was > 10 µM (inactive) throughout. The GI50 in the experiment on SK-MEL-28, with ACHN, with HL-60, in the experiment with COLO 205, in the experiment on HT-29 and in the experiment with NCI-H226 was > 10 µM (inactive) each time. Besides, the GI50 is > 10 µM in the experiment with HCT-15; > 10 µM (inactive) with IGROV-1; > 10 µM (inactive) in the experiment with UACC-257; > 10 µM (inactive) in the experiment on UACC-62; > 10 µM (inactive) in the experiment with NCI-H522.
Consider `CCOC(=O)C1=C(C)N(Cc2ccccc2)C(C)=C(C(=O)OCC)C1c1ccccc1O`, for which the GI50 in the experiment on SF-268 was 32.4 µM (inactive); with HOP-62 it was 31.5 µM (inactive); in the experiment on KM12 it was 23.7 µM (inactive); in the experiment with HCT-116, 29.4 µM (inactive); in the experiment on K562, 33.4 µM (inactive); with NCI-H23, 24 µM (inactive). Further, the GI50 in the experiment on SK-MEL-28 was 19.2 µM (inactive); in the experiment with ACHN it was 28.1 µM (inactive); in the experiment with HL-60 it was 26.6 µM (inactive); in the experiment on COLO 205, 13 µM (inactive); in the experiment with HT-29, 41.4 µM (inactive); in the experiment with NCI-H226, 19.4 µM (inactive). For the same compound, the GI50 with HCT-15 was 30.1 µM; with IGROV-1, 25.5 µM (inactive); in the experiment with UACC-257, 26.9 µM (inactive); in the experiment on UACC-62, 18.1 µM (inactive); in the experiment on NCI-H522, 25.6 µM (inactive).
`CC(Cl)(/C=C/Cl)C(Cl)/C=C/C(Cl)(CCl)CBr` (stereo not given): the GI50 with SF-268 is 2.09 µM (inactive); in the experiment on HOP-62 it was 24.3 µM (inactive); with KM12 it was 6.64 µM (inactive); with HCT-116, 1.54 µM (inactive); with K562, 1.65 µM (inactive); in the experiment with NCI-H23, 1.88 µM (inactive). The GI50 in the experiment with SK-MEL-28 was 2.24 µM (inactive); with ACHN, 5.51 µM (inactive); with HL-60, 0.533 µM (active); in the experiment on COLO 205 it was 2.01 µM (inactive); in the experiment on HT-29 it was 1.69 µM (inactive); in the experiment with NCI-H226, 10.2 µM (inactive). In addition, the GI50 with HCT-15 is 0.308 µM; with IGROV-1, 8.71 µM (inactive); in the experiment with UACC-257, 2.2 µM (inactive); with UACC-62, 1.68 µM (inactive); in the experiment on NCI-H522, 1.45 µM (inactive).
